Entries after “also recorded” stand apart in the source; their conditions may differ.
How the values were obtained:
HL60 = assay: Cytotoxicity assay for human cancer cells (MTS); assay type: cell-based; settings: HL-60, HL60 acute promyelocytic leukemia, 72 h, read-out: IC 50 value
Procedure: Human cells were grown in DMEM medium supplemented with 10% fetal calf serum (Invitrogen), in the presence of penicillin, streptomycin and amphotericin B (Fungizone) in 75 cm^2 flask under 5% CO2. Cells were plated in 96-well tissue culture microplates at a density of 650 cells/well in 200 μl medium and treated 24 h later with the compound dissolved in DMSO at concentrations ranging from 0.5-10 μM applied using an automated benchstation (Beckman Biomek 3000). Controls received the same volume of DMSO as the test wells (1% final concentration). After a 72 h exposure time, MTS reagent (Promega) was added and incubated for 3 h at 37° C. and the absorbance was read at 490 nm. Results are expressed as the inhibition of cell proliferation calculated as the ratio [(OD490 treated/OD490 control)×100].

Lewis lung carcinoma = assay: Antitumor activity in Lewis lung carcinoma bearing mice; settings: for Drug death: deaths/animals; for Tumor Log10 cell kill: [(T − C)/3.32] × Td, Td 2.2 days
Procedure: Animal body weights included the tumor weights.
The percent T/C value is calculated as follows:

[1] = test system: EAhy 926 endothelial cell line; assay: Endothelial cell morphology evaluation (rounding up); assay type: cell-based; settings: Homo sapiens, EA.hy 926; 2 h incubation; rounding up of more than 15% of cells; read-out: Cmarr EA.hy 926: lowest concentration at which cell rounding up was observed
Excerpt: To assess the effects of the compounds on the morphology of endothelial cells, the EAhy 926 endothelial cell line was used, which is derived from the fusion of human umbilical vein endothelial cells (HUVEC) with the permanent human cell line A549 (Edgell et al, Proc. Natl. Acad. Sci. U.S.A., 1983, vol 80, issue 12, 3734-3737). The EAhy 926 cell line is considered as a good representative of native HUVEC because it expresses most of the biochemical markers of parental HUVEC (Bouis et al., Angiogenesis., 2001, 4, 91-102). EAhy 926 cells were grown in DMEM containing 2 mM L-glutamine, 10% foetal bovine serum, 100 U/mL penicillin and 100 μg/mL streptomycin in a humidified atmosphere (37° C., 5% CO2). Exponentially growing EAhy 926 cells were plated onto 96 well plates at 5000 cells/100 μL/well. Twenty-four hours after plating, the medium was aspirated, and 100 μL of medium containing the test compound was added to the well containing the cells (in triplicate) and incubated for 2 h (37° C., 5% CO2). The highest concentration used was 100 μM followed by serial two-fold dilutions down to low nanomolar concentrations, if needed for the most morphologically active compounds. After the 2 h-incubation period, digital photographs were taken of representative centre areas of each well at a magnification of 100× and 200×. The results are presented as the minimum concentration that could elicit the rounding up of more than 15% of cells in a field in order to exclude normal mitotic cells which is less that 15% in control 1% DMSO treated cells. Triplicate concentrations on the same plate were routinely carried out. CA4 was included in the experiments as a positive internal standard.
Compounds of the invention were first tested on EAhy 926 endothelial cells, which are transformed HUVEC (human umbilical vein endothelial cells). These cells undergo a rounding up upon a short 2 hour exposure to vascular disrupting agents, e.g. combretastatin A4.

tubulin = assay: Tubulin polymerization inhibition assay (DAPI fluorescence); assay type: biochemical; settings: tubulin 1 mg/ml, DAPI; read-out: IPT (inhibition of tubulin polymerization) IC50
Excerpt: Fluorescence was then read at the excitation wavelength of 360 nm and emission of 450 nm.

[2] = 50 mg/kg i.p. days 4-8 and 11-15
[3] = 55 mg/kg i.p. days 4-8 and 11-15
[4] = 55 mg/kg i.p. days 4-8 and 11-15, hydrochloride

With `COc1cc(Nc2c3c(nc4cc5c(cc24)OCO5)CCCC3=O)cc(OC)c1OC.Cl` [SGR307.HCl, 6,7-(Methylenedioxy)-9-(3,4,5-trimethoxyphenylamino)-3,4-dihydroacridin-1(2H)-one, hydrochloride] as the molecule, how does the IC50 (HL60) read?
Its IC50 is 90 nM.

What about the “T − C (day), tumor growth delay” value (Lewis lung carcinoma; [2]) of the same molecule?
The value was 4.5 days.

What about the “Time for median tumor to reach 500 mm^3” value (Lewis lung carcinoma; [2]) of the same molecule?
Its value is 14.1 days.

What about the “T/C day 18 (%)” value (Lewis lung carcinoma; [2]) of the same molecule?
Its value is 36.2%.

What about the “Mean tumor volume (mm^3) on day 18 (range)” value (Lewis lung carcinoma; 50 mg/kg i.p. days 4-8 and 11-15, range 297-2230) of the same molecule?
Its value is 1158 mm^3.

What about the Drug death (Lewis lung carcinoma; [2]) of the same molecule?
The Drug death was 0/5.

And the “Note (activity / toxicity assessment)” value (Lewis lung carcinoma; 50 mg/kg i.p. days 4-8 and 11-15, hydrochloride)?
Its value is “not toxic; also recorded: highly active”.

What about the “Mean body wt change [g/mouse (day of nadir)]” value (Lewis lung carcinoma; 50 mg/kg i.p. days 4-8 and 11-15, nadir d6) of the same molecule?
Its value is −0.5 (d6) g/mouse.

And the “Tumor Log10 cell kill” value (Lewis lung carcinoma; 50 mg/kg i.p., hydrochloride)?
The value was 3.

What about the “Time for median tumor to reach 500 mm^3” value (Lewis lung carcinoma; [3]) of the same molecule?
The value was 17.4 days.

What about the “T/C day 18 (%)” value (Lewis lung carcinoma; [3]) of the same molecule?
Its value is 19.3%.

What about the “Mean tumor volume (mm^3) on day 18 (range)” value (Lewis lung carcinoma; 55 mg/kg i.p. days 4-8 and 11-15, range 457-806) of the same molecule?
The value was 619 mm^3.

And the Drug death (Lewis lung carcinoma; [3])?
The Drug death was 0/5.

And the “Note (activity / toxicity assessment)” value (Lewis lung carcinoma; [4])?
Its value is “not toxic; also recorded: highly active”.

What about the “T − C (day), tumor growth delay” value (Lewis lung carcinoma; [4]) of the same molecule?
The value was 7.8 days.

And the “Mean body wt change [g/mouse (day of nadir)]” value (Lewis lung carcinoma; 55 mg/kg i.p. days 4-8 and 11-15, nadir d8)?
The value was −2.4 (d8) g/mouse.

What about the “Tumor Log10 cell kill” value (Lewis lung carcinoma; 55 mg/kg i.p.) of the same molecule?
The value was 5.2.

What about the minimal effective concentration [1] of the same molecule?
The minimal effective concentration was 0.06 µM.

What about the IC50 (tubulin) of the same molecule?
The IC50 was 1090 nM.
